Experimental data reported in US8497298B2, “Use of benzo-fused heterocycle sulfamide derivatives for lowering lipids and lowering blood glucose levels” (Janssen Pharmaceutica NV, priority 2005, dated 2013).

Assays:
[1] = test system: db/db mice; assay: Female db/db Mouse Assay, Study A: single dose part and dose response part (Example 14); format: in vivo
Text: 0.5% Hydroxypropyl Methylcellulose (Methocel) used as vehicle/control.
Db/db mice are susceptible to Type 2 diabetes. […] All of the mice were quarantined for a period of one week before transfer to the animal procedure room. A drop of blood (about 2 microliters) was collected by tail puncture and glucose concentration was detected with a glucometer (OneTouch UltraSmart, Lifescan, Milpitas, Calif.). […] Animals were separated and single housed at least three days prior to the drug treatments to allow acclimation to the new surroundings.
In the second, dose response part of Study A, 48 mice were allocated into 4 treatment groups of 12 mice each.
The dosing volume was 5 mL/kg body weight (0.2 mL for 40 gram mice). The mice were fed ad lib throughout the study. A necropsy was completed 18 hours after last dosing.
Blood glucose levels were measured from blood collected through tail puncture using a glucometer at 1000 hour. The mice were anaesthetized with sodium pentobarbital (1 ml/kg, intraperitoneal [i.p.] injection, SleepAway, Fort Dodge, Iowa) and blood was drawn via cardiac puncture using 1 mL syringe and collected into heparinized tubes. White adipose tissues (WAT) (retroperitoneal and inguinal fat pads), brown adipose tissure (BAT) and skeletal muscles (gastrocnemius and soleus muscle) and stomach contents were dissected and weighed. Plasma samples were obtained by centrifuging whole blood at 2000˜3000 g for 10˜20 minutes at 4° C. and stored at −20° C. for further measurement of insulin, HDL, LDL, total cholesterol and triglyceride.
Plasma insulin concentrations were measured by in both studies using the appropriate rat/mouse insulin enzyme-linked immunosorbent assay (ELISA) kit (EZRMI-13K, LINCO Research, St. Charles, Mo.). Blood samples were diluted 1:4 in charcoal stripped mouse serum that was included in the ELISA kit. The rest of the procedure followed the manufacturers instruction. The total fluorescence was detected using an Orion 1 Microplate Luminometer (Berthold Detection Systems, Pforzheim, Germany).
According to manufacturers protocol, cholesterol measurement was an enzymatic method utilizing cholesterol esterase and cholesterol oxidase conversion followed by a Trinder endpoint; Elimination/catalase method was used for HDL measurement; an enzymatic method with a Trinder endpoint was used for triglyceride measurement.
Data from both parts of the Study (single dose and dose response) was analyzed using the standard two-tailed Student's t-test and are expressed below as means and standard errors.

[2] = single dose part, rosiglitazone 20 mg/kg
[3] = single dose part, rosiglitazone 20 mg/kg positive control
[4] = single dose part, rosiglitazone 20 mg/kg, plasma

Q: Which “total cholesterol concentrations elevated relative to vehicle” value ([1]; rosiglitazone, dose not given) does the source give for `CN(CCOc1ccc(CC2SC(=O)NC2=O)cc1)c1ccccn1` (centres unmarked) [Rosiglitazone, rosiglitazone, reference compound] here?
A: Its value is 35.1%.

Q: And the “Brown Adipose Tissue” value [1, 2]?
A: The value was 0.32 ± 0.02 g.

Q: What about the “Final weight Body weight” value [1, 2] of the same compound?
A: The value was 43 ± 1.0 g.

Q: And the “Final weight Stomach contents” value [1, 2]?
A: Its value is 0.32 ± 0.04 g.

Q: And the Inguinal fat [1, 2]?
A: The Inguinal fat was 2.44 ± 0.11 g.

Q: And the Muscle [1, 2]?
A: Its Muscle is 0.154 ± 0.00 g.

Q: And the Retroperitoneal fat [1, 2]?
A: Its Retroperitoneal fat is 1.45 ± 0.10 g.

Q: What about the “Total chow consumption Day 1-3” value [1, 2] of the same compound?
A: The value was 21 ± 0.8 g.

Q: What about the “Total chow consumption Day 4-6” value [1, 2] of the same compound?
A: Its value is 22 ± 0.9 g.

Q: What about the “Total chow consumption Day 7-9” value [1, 2] of the same compound?
A: The value was 19 ± 0.7 g.

Q: And the Glucose [1, 3]?
A: The Glucose was 170 ± 23 mg/dL.

Q: What about the Insulin [1, 3] of the same compound?
A: Its Insulin is 11.2 ± 2.3 ng/mL.

Q: And the Cholesterol [1, 4]?
A: The Cholesterol was 123 ± 8 mg/dL.

Q: And the HDL [1, 4]?
A: Its HDL is 62.5 ± 3.2 mg/dL.

Q: What about the LDL [1, 4] of the same compound?
A: Its LDL is 3.3 ± 0.3 mg/dL.

Q: And the “Ratio (Triglyceride to HDL)” value [1, 4]?
A: The value was 1.6 ± 0.3.

Q: And the Triglyceride [1, 4]?
A: Its Triglyceride is 105 ± 23 mg/dL.

Q: What about the “Ratio (fat/muscle)” value ([1]; single dose part, rosiglitazone 20 mg/kg, total inguinal and retroperitoneal fat/muscle weight) of the same compound?
A: Its value is 25.4 ± 1.6.

Q: And the weight gain ([1]; single dose part, rosiglitazone, p<0.05 vs vehicle 0.3±0.2 g)?
A: Its weight gain is 3.1 ± 0.4 g.

Q: Which melting point does the source give for `NS(=O)(=O)NCC1CCc2ccccc2O1` (centres unmarked) [Compound #10, Chroman-2-ylmethylsulfamide] here?
A: Its melting point is 100 to 101 °C.
